Assay results as given in patent US20080160059A1, “ANTIBIOTIC/ANTIMYCOTIC PREPARATION AND USE IN PLANTS” (priority 2006, published 2008).
Counter-ions that a name gives are not always drawn.

Tested on: Burkholderia andropogonis
Assay: Absorbent disc test on a bacterial lawn on agar (kill zone)
Format: cell-based
Conditions: intermediate concentration tested; absorbent discs on bacterial lawn
Source text: To determine the sensitivity of Burkholderia andropogonis, a stock was applied to commercially prepared agar-containing Petri dishes to provide dishes containing a lawn of bacteria. Then, absorbent discs containing a mixture of oxytetracycline hydrochloride and copper oxychloride, and each of the active ingredients separately, oxytetracycline hydrochloride alone and copper oxychloride alone were placed onto the bacterial lawn. The concentrations of the individual active agents in the discs were the same as that for each found in the combination. The combination and the individual actives were tested at three different concentrations. Each concentration was run in triplicate.
An analogous commercially available system for making routine determinations of bacterial and fungal sensitivity also was used.
The toxicity at each concentration was far greater than the sum of the toxicities of each active agent alone, for example, at the intermediate concentration tested, the bacteria kill zone for oxytetracycline was 3.3 mm in diameter; for copper oxychloride, the zone was 2 mm in diameter; but for the combination, the kill zone was 15 mm in diameter.

SMILES	bacteria kill zone in diameter
[Cl-].[Cu+2].[Cu+2].[OH-].[OH-].[OH-] [copper oxychloride]	2 mm
CN(C)[C@@H]1C(O)=C(C(N)=O)C(=O)[C@@]2(O)C(O)=C3C(=O)c4c(O)cccc4[C@@](C)(O)[C@H]3[C@H](O)[C@@H]12 [oxytetracycline hydrochloride]	3.3 mm
